Calls of active or inactive are those of the source. The rule behind the calls is not given here.
Key:
[1] = tested on: DNA; assay: Binding affinity to calf thymus DNA in CP buffer at pH 7.0 at 3 to 24 uM by CD spectroscopy; type: nucleic-acid assay; settings: Bos taurus
[2] = Binding affinity to poly(dG-dC).poly(dG-dC) DNA (unknown origin) in CP buffer at pH 7.0 at 3 to 24 uM by CD spectroscopy
[3] = Binding affinity to duplex DNA (unknown origin) assessed as change in melting temperature
[4] = Binding affinity to poly(dA-dT).poly(dA-dT) DNA (unknown origin) in CP buffer at pH 7.0 at 3 to 24 uM by CD spectroscopy

Row | ΔTm [3] [°C] | Compound | Activity [1] | Activity [2] | Activity [4]
1 | 16 | COc1ccc2c(CCC(c3ccccc3)c3ccccc3)c3[n+](cc2c1OC)CCc1cc2c(cc1-3)OCO2 | Active | Active | Active
2 | 7 | COc1ccc2c(CC(c3ccccc3)c3ccccc3)c3[n+](cc2c1OC)CCc1cc2c(cc1-3)OCO2 | Active | Active | Active
3 | 17 | COc1ccc2c(CCCCC(c3ccccc3)c3ccccc3)c3[n+](cc2c1OC)CCc1cc2c(cc1-3)OCO2 | Active | Active | Active
4 | 13 | COc1ccc2cc3[n+](cc2c1OC)CCc1cc2c(cc1-3)OCO2 | – | – | –

Row | Compound | ΔTm [3] [°C] | Activity [1] | Activity [2] | Activity [4]
5 | COc1ccc2c(C(c3ccccc3)c3ccccc3)c3[n+](cc2c1OC)CCc1cc2c(cc1-3)OCO2 | 6 | Active | Active | Active
6 | COc1ccc2c(CCCCCC(c3ccccc3)c3ccccc3)c3[n+](cc2c1OC)CCc1cc2c(cc1-3)OCO2 | 16.6 | Active | Active | Active
7 | COc1ccc2c(CCCC(c3ccccc3)c3ccccc3)c3[n+](cc2c1OC)CCc1cc2c(cc1-3)OCO2 | 19 | Active | Active | Active

— ChEMBL document CHEMBL3132805, “Synthesis of new 13-diphenylalkyl analogues of berberine and elucidation of their base pair specificity and energetics of DNA binding” (Medchemcomm, 2014)
